The values that follow come from ChEMBL document CHEMBL3045493, “Synthesis and antifungal activity of novel 2,5-disubstituted-1,3,4-oxadiazoles containing benzimidazole moiety” (J Pestic Sci, 2012).

One test relates to Sclerotinia sclerotiorum. The test can be described thus: Antifungal activity against benzimidazole-sensitive Sclerotinia sclerotiorum SS-JSZ01 assessed as inhibition of mycelium growth after 3 days followed by 96 hr incubation in light incubator. In kind it is functional, organism-based.
The next test has as its system Botrytis cinerea. The test can be described thus: Antifungal activity against benzimidazole moderately resistant Botryotinia fuckeliana BC-JfC02 assessed as inhibition of mycelium growth after 3 days followed by 96 hr incubation in light incubator. It is filed as functional, organism-based.

The term EC50 denotes the concentration giving half of the maximal effect.

Structures are written as SMILES. Values after ≈ are worked out from the molar mass of the structure shown.

For the compound `CCSc1nnc(-c2nc3ccccc3n2Cc2ccc(F)cc2)o1`, the EC50 with Sclerotinia sclerotiorum is 8.86 µg/mL (≈ 25 µM); in the test on Botrytis cinerea, 3.08 µg/mL (≈ 8.69 µM).

With `Clc1ccc(CSc2nnc(-c3nc4ccccc4[nH]3)o2)c(Cl)c1`, the values for the EC50 with Sclerotinia sclerotiorum and in the test on Botrytis cinerea were 22.7 µg/mL (≈ 60.3 µM) and 16.4 µg/mL (≈ 43.4 µM), respectively.

Take `Clc1ccc(CSc2nnc(-c3nc4ccccc4[nH]3)o2)cc1`: the EC50 came out at 9.1 µg/mL (≈ 26.5 µM) in the test with Sclerotinia sclerotiorum and 14.8 µg/mL (≈ 43.3 µM) in the test with Botrytis cinerea.

Turning to `Fc1ccc(CSc2nnc(-c3nc4ccccc4n3Cc3ccc(F)cc3)o2)cc1`, the EC50 with Sclerotinia sclerotiorum came to 7.52 µg/mL (≈ 17.3 µM); in the test on Botrytis cinerea it was 13.9 µg/mL (≈ 32.1 µM).

Turning to `Fc1ccc(CSc2nnc(-c3nc4ccccc4[nH]3)o2)cc1`, the EC50 was determined as 20.5 µg/mL (≈ 62.7 µM) in the test with Sclerotinia sclerotiorum and 12.8 µg/mL (≈ 39.1 µM) in the test on Botrytis cinerea.

For the compound `Fc1ccc(Cn2c(-c3nnc(SCc4ccc(Cl)cc4)o3)nc3ccccc32)cc1`, the EC50 in the test on Sclerotinia sclerotiorum is 0.43 µg/mL (≈ 0.954 µM); in the test with Botrytis cinerea, 6.07 µg/mL (≈ 13.5 µM).

On to `CSc1nnc(-c2nc3ccccc3[nH]2)o1`, for which the EC50 in the test with Sclerotinia sclerotiorum worked out at 2.04 µg/mL (≈ 8.78 µM); in the test with Botrytis cinerea it was 10.6 µg/mL (≈ 45.5 µM).

Regarding `Fc1ccc(Cn2c(-c3nnc(SCc4ccc(Cl)cc4Cl)o3)nc3ccccc32)cc1`, the figures for the 50% effective concentration (EC50) with Sclerotinia sclerotiorum and with Botrytis cinerea were 0.55 µg/mL (≈ 1.13 µM) and 7.81 µg/mL (≈ 16.1 µM), respectively.

Take `CCCCSc1nnc(-c2nc3ccccc3n2Cc2ccc(F)cc2)o1`: the EC50 was found to be 0.94 µg/mL (≈ 2.46 µM) in the test on Sclerotinia sclerotiorum and 6.26 µg/mL (≈ 16.4 µM) in the test on Botrytis cinerea.

Turning to `Fc1ccc(Cn2c(-c3nnc(SCc4ccccc4)o3)nc3ccccc32)cc1`, the EC50 in the test with Sclerotinia sclerotiorum is 0.04 µg/mL (≈ 0.096 µM); in the test with Botrytis cinerea it was 1.31 µg/mL (≈ 3.15 µM).

For `COC(=O)Nc1nc2ccccc2[nH]1` [CARBENDAZIM], the 50% effective concentration (EC50) in the test with Sclerotinia sclerotiorum is 0.13 µg/mL (≈ 0.68 µM); in the test on Botrytis cinerea, 7.4 µg/mL (≈ 38.7 µM).

Consider `CCCSc1nnc(-c2nc3ccccc3[nH]2)o1`, for which the EC50 in the test on Sclerotinia sclerotiorum is 18.2 µg/mL (≈ 70 µM); in the test on Botrytis cinerea, 16.6 µg/mL (≈ 63.6 µM).

In the case of `c1ccc(CSc2nnc(-c3nc4ccccc4[nH]3)o2)cc1`, the figures for the EC50 in the test with Sclerotinia sclerotiorum and in the test with Botrytis cinerea were 22.9 µg/mL (≈ 74.4 µM) and 18.4 µg/mL (≈ 59.6 µM), respectively.

In the case of `CC(C)Sc1nnc(-c2nc3ccccc3[nH]2)o1`, the EC50 stood at 23.4 µg/mL (≈ 89.8 µM) in the test on Sclerotinia sclerotiorum and 24.1 µg/mL (≈ 92.8 µM) in the test with Botrytis cinerea.

For the compound `CSc1nnc(-c2nc3ccccc3n2Cc2ccc(F)cc2)o1`, the EC50 with Sclerotinia sclerotiorum is 12.4 µg/mL (≈ 36.3 µM); in the test on Botrytis cinerea it was 14 µg/mL (≈ 41 µM).

For the compound `CCSc1nnc(-c2nc3ccccc3[nH]2)o1`, the EC50 with Sclerotinia sclerotiorum is 1.31 µg/mL (≈ 5.32 µM); in the test with Botrytis cinerea, 2.7 µg/mL (≈ 11 µM).

As to `CCCSc1nnc(-c2nc3ccccc3n2Cc2ccc(F)cc2)o1`, the EC50 was 2.03 µg/mL (≈ 5.51 µM) in the test with Sclerotinia sclerotiorum and 5.63 µg/mL (≈ 15.3 µM) with Botrytis cinerea.

`CC(C)Sc1nnc(-c2nc3ccccc3n2Cc2ccc(F)cc2)o1`: the EC50 in the test with Sclerotinia sclerotiorum was 10.2 µg/mL (≈ 27.5 µM); in the test on Botrytis cinerea, 11.4 µg/mL (≈ 30.9 µM).

Consider `CCCCSc1nnc(-c2nc3ccccc3[nH]2)o1`, for which the EC50 is 9.12 µg/mL (≈ 33.2 µM) in the test with Sclerotinia sclerotiorum and 9.86 µg/mL (≈ 35.9 µM) with Botrytis cinerea.
